Source: patent US5843992A, “Epoxysuccinic acid derivatives” (Nippon Chemiphar Co., Ltd., priority 1995, dated 1998)
Where two headings read alike, the source gives them in different places.

Columns and labels:
cathepsin B [1] = biological target: T1, cathepsin B (Rattus norvegicus, UniProt P00787); test: Cathepsin B inhibitory action (lysosome fraction, Z-Arg-Arg-MCA); assay type: biochemical, rat (Wistar); details: pH 6.0, 30° C.; read-out: Cathepsin B Inhibition (IC50)
T1 construct: Preparation of Rat Liver Lysosome Fraction; from tissue; host or cells: rat liver lysosome fraction (male Wistar rat)
Method: Male rat of Wistar strain was killed by exsangulnation and a ice-chilled physiological saline was introduced into portal vein for circulation. Then, its liver was taken out. Thereafter, the following procedures were performed at 4° C.
The liver was minced by scissors. Five grams of minced liver were homogenized in a Potter type Teflon Homogenizer after addition of 0.25M aqueous sucrose solution in a volume as much as nine times. The homogenized mixture was centrifuged for 10 minutes at 800 G. The resulting supernatant was further centrifuged at 12,000 G for 20 minutes. The precipitate was homogenized in 25 mL of 0.25M aqueous sucrose solution, and then centrifuged for 20 minutes at 12,000 G. The resulting precipitate was further homogenized after 100 mL of 0.25M aqueous sucrose solution. Thus, a lysosome fraction was obtained.
To 0.25 mL of a solution (pH: 6.0) containing 352 mM KH2 PO4, 48 mM Na2 HPO4, 5.32 mM EDTA.2 Na and 10 mM L-cysteine were added 0.1 mL of the lysosome fraction, 5 μL of the test compound solution, and 0.545 mL of distilled water. The mixture was preincubated at 30° C. for 15 minutes. Thereafter, the reaction was started by the addition of 0.1 mL of a solution of 50 μM carbobenzoxy-L-arginine-L-arginine-4-methylcoumaryl-7-amide (Z-Arg-Arg-MCA, substrate). The reaction was performed at 30° C. for 20 minutes, and then terminated by addition of 1 mL of an aqueous solution (pH: 4.3) containing 100 mM sodium monochloroacetate, 30 mM sodium acetate and 70 mM acetic acid. The finally obtained solution was subjected to measurement of fluorescence strength (excitation wavelength: 380 nm, emission wavelength: 460 nm).

[2] = tested on: ICR mouse calvaria (bone resorption); test: Bone resorption inhibitory activity (PTH-stimulated calcium release from mouse calvaria); assay type: cell-based; details: read-out: Bone Resorption Inhibition, inhibition ratio (%)
Method: From ICR mouse (age: 6 to 7 days), calvaria was taken under aseptic conditions. The calvaria was divided along the median line into two parts after its connective tissue was removed. In a culture medium (modified BGjb medium, containing 5% inactivated bovine fetal serum) in an amount of 1 mL per a pair of bones, a pre-culture was performed for 24 hours under the conditions of 5% CO2 and 37° C. After the pre-culture was complete, each one of bone was placed in 0.5 mL of the same culture medium containing the test compound of different concentration, and cultured for 72 hours in the presence of 3×10^-7 M parathyroid hormone (PTH). For the control, culture was performed in the same manner except for using neither test compound nor PTH.
After the culture was complete, the amount of calcium released in the supernatant of the culture medium in the 72 hour culture as well as the amount of calcium contained in the bone (dissolved in 1 mL of 6N hydrochloric acid) were determined by ortho-cresol phthalein complexon (OCPC) method.
The calcium release ratio (%) was calculated according to the following equation: [formula]
The inhibition ratio (%) of bone resorption by the test compound was calculated according to the following equation: [formula]

cathepsin L = cathepsin L (Rattus norvegicus, UniProt P07154); test: Cathepsin L inhibitory action (rat liver lysosome fraction, Z-Phe-Arg-MCA); assay type: biochemical, rat (Wistar); details: pH 5.5, 30° C., in the presence of 10^-7 M CA-074; read-out: Cathepsin L Inhibition IC50
cathepsin B [3] = biological target: T1, cathepsin B; details: 10^-7 M CA-074, pH 5.5, Z-Phe-Arg-MCA; cited from earlier work
[4] = Concentration of Test Comp. 10^-4 M, 72 hours, 3×10^-7 M PTH
[5] = Concentration of Test Comp. 10^-5 M, 72 hours, 3×10^-7 M PTH
[6] = Concentration of Test Comp. 10^-6 M, 72 hours, 3×10^-7 M PTH

T1 sequence (P00787 80-339): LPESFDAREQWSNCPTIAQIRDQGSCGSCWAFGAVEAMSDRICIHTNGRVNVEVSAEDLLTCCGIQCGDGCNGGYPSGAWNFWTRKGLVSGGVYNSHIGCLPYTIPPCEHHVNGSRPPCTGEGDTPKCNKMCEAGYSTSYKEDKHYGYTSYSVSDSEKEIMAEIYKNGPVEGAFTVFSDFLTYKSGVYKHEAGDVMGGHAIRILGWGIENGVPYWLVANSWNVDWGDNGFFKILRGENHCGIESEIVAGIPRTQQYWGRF
cathepsin L, sequence (P07154 114-334): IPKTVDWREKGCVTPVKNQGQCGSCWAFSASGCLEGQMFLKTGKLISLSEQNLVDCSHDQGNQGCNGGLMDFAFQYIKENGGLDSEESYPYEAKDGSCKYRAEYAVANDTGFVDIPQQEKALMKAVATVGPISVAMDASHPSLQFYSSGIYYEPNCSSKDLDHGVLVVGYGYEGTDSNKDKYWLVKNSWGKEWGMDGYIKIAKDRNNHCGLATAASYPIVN

Row | SMILES | IC50 (cathepsin B [1]) | inhibition at 1 µM ([2]; 72 h) | inhibition at 10 µM ([2]; 72 h) | inhibition at 100 µM ([2]; 72 h) | IC50 (cathepsin L) | inhibition at 100 µM [2, 4] | inhibition at 10 µM [2, 5] | inhibition at 1 µM [2, 6] | cathepsin B activity inhibition (cathepsin B [3])
1 | O=C(O)[C@H]1O[C@@H]1C(=O)NC(Cc1ccccc1)Cc1ccccc1 | 200 nM | – | – | – | – | – | – | – | –
2 | O=C(O)[C@H]1O[C@@H]1C(=O)NC(c1ccccc1)c1ccccc1 | 230 nM | 90% | 82% | 95% | 240 nM | – | – | – | –
3 | CC(C)CCC(CCC(C)C)NC(=O)[C@H]1O[C@@H]1C(=O)O | 310 nM | 63% | 87% | 82% | 19 nM | – | – | – | –
4 | CC(C)CCNC(=O)[C@H]1O[C@@H]1C(=O)O (relative stereo) [Comparison X, reference compound] | – | – | – | – | 78 nM | 66% | 40% | 25% | –
5 | O=C(O)[C@H]1O[C@@H]1C(=O)NCc1ccccc1 (relative stereo) [Comparison Y, reference compound] | – | – | – | – | 350 nM | 44% | 38% | 21% | –
6 | CCCNC(=O)[C@H]1O[C@@H]1C(=O)N[C@H](C(=O)N1CCC[C@H]1C(=O)O)[C@@H](C)CC [CA-074] | – | – | – | – | – | – | – | – | completely inhibited
